{"source": "patent US20180271960A1", "about": "“METHOD TO TREAT CANCER USING ARGININE DELPETOR AND ORNITHINE DECARBOXYLASE (ODC) INHIBITOR” (Bio-Cancer Treatment International Ltd., priority 2015, published 2018)", "key": {"[1]": {"tested_on": "H1975 lung adenocarcinoma cell line", "assay": "MTT assay, growth inhibition of H1975 cell line", "assay_type": "cell-based", "details": "48 h and 72 h at 0.5 ng/μl and 10 ng/μl", "method": "(§1) The inhibition ratio (IR) and the half maximal inhibitory concentration (IC50) values are determined by a MTT assay."}, "[2]": {"tested_on": "HCC2935 lung adenocarcinoma cell line", "assay": "MTT assay, growth inhibition of HCC2935 cell line", "assay_type": "cell-based", "details": "72 h at 10 ng/μl only", "method": "as §1"}}}
{"substance": "arginine deiminase [ADI, reference compound]", "values": [{"measurement": "growth inhibition effect (cell proliferation)", "setting": "[1]", "value": "does not inhibit H1975 lung adenocarcinoma cell line proliferation"}, {"measurement": "growth inhibition effect (cell proliferation / toxicity)", "setting": "[2]", "value": "does not inhibit HCC2935 lung adenocarcinoma cell line proliferation"}]}
